Reference: patent publication US7476517B2, “Virus like particles, their preparation and their use preferably in pharmaceutical screening and functional genomics” (Evotec AG, priority 1999, dated 2009)

Target: T1, human ETA receptor (Homo sapiens, UniProt P25101)
T1 construct: Flag; made in house; host or cells: Sf9 insect cells co-infected with recombinant baculoviruses; VLPs pelleted from the culture supernatant
T1 sequence (P25101 21-427): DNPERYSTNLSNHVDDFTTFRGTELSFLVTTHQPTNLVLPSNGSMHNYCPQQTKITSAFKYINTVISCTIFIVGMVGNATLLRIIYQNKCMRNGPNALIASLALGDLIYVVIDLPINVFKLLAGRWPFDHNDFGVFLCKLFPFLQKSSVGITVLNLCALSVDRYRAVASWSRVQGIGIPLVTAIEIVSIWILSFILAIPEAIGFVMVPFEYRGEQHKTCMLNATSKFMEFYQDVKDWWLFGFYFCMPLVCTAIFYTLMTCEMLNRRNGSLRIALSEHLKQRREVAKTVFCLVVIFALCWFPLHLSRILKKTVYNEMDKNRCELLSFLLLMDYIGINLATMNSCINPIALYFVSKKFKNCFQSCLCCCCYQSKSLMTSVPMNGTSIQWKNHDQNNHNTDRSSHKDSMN
Test: ETA receptor binding assay with FIDA analysis
Details: 1 μM non-labelled ligand; 2 nM TAMRA-labeled endothelin-1; membrane vesicles from CHO cells or VLPs from Sf9 cells; 30 minutes at room temperature
Description: After 30 minutes incubation at room temperature the mixture was analysed by FIDA using a beam scanner and 543 nm laser light for excitation.

competition with TAMRA-labeled endothelin-1 for binding to the ETA receptor | Compound
non-competing ligand | big endothelin-1
competing ligand | endothelin-1

Compound | competition with TAMRA-labeled endothelin-1 for binding to the ETA receptor
C[C@H](N)C(=O)NCC(=O)N[C@H]1CSSC[C@@H](C(=O)O)NC(=O)[C@H](CO)NC(=O)[C@H]([C@@H](C)O)NC(=O)[C@H](Cc2ccccc2)NC(=O)[C@H]([C@@H](C)O)NC(=O)[C@H](CCCCN)NC(=O)[C@H](Cc2c[nH]c3ccccc23)NC(=O)[C@H](Cc2ccccc2)NC(=O)[C@H](Cc2ccccc2)NC(=O)[C@H](CC(N)=O)NC(=O)[C@H](CCCCN)NC1=O [somatostatin-14] | non-competing ligand
